Experiments:
[1] = tested on: 20-HETE synthase originated from rat kidney microsome; experiment: Inhibitory effect of 20-HETE synthase originated from rat kidney microsome; type: biochemical; settings: for Inhibition rate (1 μM): 20-HETE production without compound set to 100%
Procedure: Experimental Example [Inhibitory effect of 20-HETE synthase originated from rat kidney microsome]
Regarding the compounds listed in Table 1, their inhibitory activity to production of 20-HETE was examined.
The subject compound for this examination was added to a buffer comprising 50 mM of 3-morpholinopropane sulfonic acid (pH7.4), 5 mM of magnesium chloride and 1 mM of ethylenediaminetetraacetic acid (EDTA) disodium salt.
After that, the rat kidney microsome (microsome fraction prepared from the kidney of a spontaneous hypertension rat (male, 6 weeks of age)) as an enzyme, [5,6,8,9,11,12,14,15] tritium-arachidonic acid (supplied by Amasham) as a substrate, and NADPH (supplied by Sigma) as a coenzyme were added and reacted for 1.5 hours at 37° C.
After the reaction, formic acid was added to stop the reaction, and then acetonitrile (final concentration of 50%) was added and left for 1.5 hours at room temperature.
The activity of 20-HETE synthase was measured by using a high performance liquid chromatograph having a detector for radioactive substances (supplied by Gilson), and equipped with a C18 reversed phase column (Biocyl C18, supplied by Bio-rad).

[2] = 1 μM of the subject compound added, rat kidney microsome
[3] = concentration at which production of 20-HETE was inhibited to 50%, rat kidney microsome
[4] = 1 μM of subject compound, rat kidney microsome
[5] = concentration at which 20-HETE production was inhibited to 50%, rat kidney microsome
[6] = concentration at which production of 20-HETE was inhibited to 50%

melting point | Structure (SMILES) | Inhibition rate (1 μM) [1, 2] | other results
153 to 154 °C | O/N=C/Nc1ccc(C2CCCCC2)cc1 [Comp. 5] | 99.9 | IC50 [1, 3]: 3.8 nM
146.5 to 149 °C | Cc1cccc(COc2ccc(N/C=N/O)cc2)n1 [Comp. 369] | – | Inhibition rate (1 μM) [1, 4]: 105; IC50 [1, 5]: 3.1 nM
144 to 145 °C | COc1ccc(N/C=N/O)c(C)c1 [Comp. 19] | 88.0 | IC50 [1, 3]: 338 nM
143 to 146 °C | N#Cc1cccc(COc2ccc(N/C=N/O)cc2)c1 [Comp. 393] | – | Inhibition rate (1 μM) [1, 4]: 124.3; IC50 [1, 5]: 1.1 nM
132.5 to 134.5 °C | O/N=C/Nc1ccc(OCCSc2ccccn2)cc1 [Comp. 359] | – | Inhibition rate (1 μM) [1, 4]: 102; IC50 [1, 5]: 1.4 nM
157.5 to 158 °C | O/N=C/Nc1ccc(OCC2COCO2)cc1 (stereo not drawn) [Comp. 340] | – | Inhibition rate (1 μM) [1, 4]: 97.4; IC50 [1, 5]: 3 nM
115 to 117 °C | CN(C)CCCOc1ccc(N/C=N/O)cc1 [Comp. 400] | – | Inhibition rate (1 μM) ([1]; 1 μM of the subject compound): 116.9; IC50 [1, 6]: 48.7 nM
101.5 to 104 °C | CC(=O)OCCCCCOc1ccc(N/C=N/O)cc1 [Comp. 426] | – | IC50 [1, 6]: 5.1 nM
114 to 117 °C | CN1CCCC(COc2ccc(N/C=N/O)cc2)C1 (stereo not drawn) [Comp. 415] | – | Inhibition rate (1 μM) ([1]; 1 μM of the subject compound): 103.7; IC50 [1, 6]: 17.6 nM
141 to 142 °C | O/N=C/Nc1ccc(OCCN2CCOCC2)cc1 [Comp. 355] | – | Inhibition rate (1 μM) [1, 4]: 107; IC50 [1, 5]: 5.9 nM
161.5 to 162 °C | Cc1cccc(COc2ccc(N/C=N/O)cc2)c1 [Comp. 391] | – | Inhibition rate (1 μM) [1, 4]: 113.4; IC50 [1, 5]: 2.4 nM
140.5 to 142 °C | O/N=C/Nc1ccc(C(F)(F)F)cc1 [Comp. 27] | 103.3 | IC50 [1, 3]: 1.7 nM
174.5 to 175.5 °C | O/N=C/Nc1ccc(OCc2ccc3ccccc3n2)cc1 [Comp. 342] | – | Inhibition rate (1 μM) [1, 4]: 98.5; IC50 [1, 5]: 5.3 nM
116 to 118 °C | Cc1ccc(N/C=N/O)cc1C [Comp. 13] | 95.9 | IC50 [1, 3]: 118 nM
163 to 163.5 °C | O/N=C/Nc1ccc(Br)cc1Br [Comp. 34] | 90.6 | IC50 [1, 3]: 79.7 nM
153 to 155 °C | O/N=C/Nc1ccc(OCC2COc3ccccc3O2)cc1 (stereo not drawn) [Comp. 410] | – | Inhibition rate (1 μM) ([1]; 1 μM of the subject compound): 117.3; IC50 [1, 6]: 1 nM
143 to 143.5 °C | CC(C)c1ccc(N/C=N/O)cc1 [Comp. 30] | – | –
147 to 148.5 °C | O/N=C/Nc1ccc(OCC2CCCO2)cc1 (stereo not drawn) [Comp. 420] | – | Inhibition rate (1 μM) ([1]; 1 μM of the subject compound): 118.6; IC50 [1, 6]: 8 nM
166.5 to 167 °C | O/N=C/Nc1c(Cl)cc(Cl)cc1Cl [Comp. 121] | 72.0 | –
141 to 142 °C | CC(C)(C)c1ccccc1N/C=N/O.Cl [Comp. 8] | 99.9 | –
97 to 99 °C | CCCCOCCOc1ccc(N/C=N/O)cc1 [Comp. 373] | – | Inhibition rate (1 μM) [1, 4]: 115.3; IC50 [1, 5]: 0.8 nM
139 to 141 °C | C#CCCOc1ccc(N/C=N/O)cc1 [Comp. 335] | – | Inhibition rate (1 μM) [1, 4]: 110; IC50 [1, 5]: 1.4 nM
84.5 to 85.5 °C | CCCCc1ccccc1N/C=N/O [Comp. 3] | 98.9 | –
136.5 to 139 °C | COc1ccc(C)cc1N/C=N/O [Comp. 17] | 85.3 | –
159.5 to 161 °C | O/N=C/Nc1ccc(OCc2ccccn2)cc1 [Comp. 345, N-[4-(pyridin-2-ylmethoxy)phenyl]-N′-hydroxyformamidine] | – | Inhibition rate (1 μM) [1, 4]: 107; IC50 [1, 5]: 37.5 nM
167 to 167.5 °C | COC(=O)c1ccc(N/C=N/O)cc1 [Comp. 37] | – | –

melting point | Structure (SMILES) | Inhibition rate (1 μM) [1, 2] | other results
115.5 to 116.5 °C | CCc1cccc(N/C=N/O)c1 [Comp. 21] | 81.1 | –
140.5 to 141 °C | OCC(O)COc1ccc(N/C=N/O)cc1 (stereo not drawn) [Comp. 436] | – | IC50 [1, 6]: 79.2 nM
128.5 to 129.5 °C | CC1(C)OCC(COc2ccc(N/C=N/O)cc2)O1 (stereo not drawn) [Comp. 348] | – | Inhibition rate (1 μM) [1, 4]: 103; IC50 [1, 5]: 3.4 nM
168 to 168.5 °C | O/N=C/Nc1ccc(OCc2cccs2)cc1 [Comp. 350] | – | Inhibition rate (1 μM) [1, 4]: 91; IC50 [1, 5]: 1.4 nM
131 to 132 °C | CCCc1ccc(N/C=N/O)cc1 [Comp. 31] | 97.8 | IC50 [1, 3]: 6.6 nM
151 to 152.5 °C | Cc1cc(Cl)ccc1N/C=N/O [Comp. 38] | 89.8 | IC50 [1, 3]: 79.8 nM
113.5 to 114.5 °C | O/N=C/Nc1ccc(OCCN2CCCC2)cc1 [Comp. 339] | – | Inhibition rate (1 μM) [1, 4]: 88; IC50 [1, 5]: 124 nM
143 to 146 °C | COc1cc(N/C=N/O)cc(OC)c1OC [Comp. 103] | – | –
143.5 to 144.5 °C | Cc1ccc(N/C=N/O)cc1 [Comp. 10] | – | –
130.5 to 131.5 °C | NS(=O)(=O)c1ccccc1N/C=N/O [Comp. 236, N-(2-aminosulfonylphenyl)-N′-hydroxyformamidine] | – | –
132 to 133 °C | CCCOc1ccc(N/C=N/O)cc1 [Comp. 317] | – | –
113.5 to 114.5 °C | CC(C)(C)c1ccc(N/C=N/O)cc1 [Comp. 2, N-(4-tert-butylphenyl)-N′-hydroxy-formamidine] | – | –
141 to 142 °C | CCc1ccc(N/C=N/O)cc1 [Comp. 16] | – | –
118 to 119.5 °C | O/N=C/Nc1ccc(Cc2ccccc2)cc1 [Comp. 233] | – | –
155 to 156 °C | CCCc1cc(Br)c(N/C=N/O)c(Br)c1 [Comp. 48] | – | –
137.5 to 138.5 °C | CCOC(=O)c1cccc(N/C=N/O)c1 [Comp. 127] | – | –
108 to 110 °C | CCCCCCc1ccc(N/C=N/O)cc1 [Comp. 9] | – | –
116.5 to 117.5 °C | CCCCc1ccc(C)c(N/C=N/O)c1 [Comp. 133] | – | –
145 to 146 °C | COc1cccc(C)c1N/C=N/O [Comp. 52] | – | –
– | CCCCCCCCCCc1ccc(N/C=N/O)cc1 [Comp. 157] | 121.4 | –
– | O/N=C/Nc1ccc(OCCCN2CCCC2)cc1 [Comp. 429] | – | IC50 [1, 6]: 79.1 nM
– | O/N=C/Nc1ccc2c(c1)Cc1cc(Br)ccc1-2 [Comp. 274] | – | Inhibition rate (1 μM) [1, 4]: 94.5
177.5 to 178 °C | O/N=C/Nc1ccc(N2CCOCC2)c(Cl)c1 [Comp. 302] | – | –
165 to 165.5 °C | O/N=C/Nc1ccc2c(c1)OCO2 [Comp. 230] | – | –
– | COc1ccc(N/C=N/O)cc1F [Comp. 98] | 43.9 | –
– | Cc1ccc(C(C)C)cc1N/C=N/O [Comp. 57] | 59.1 | –

melting point | Structure (SMILES) | Inhibition rate (1 μM) [1, 2] | other results
– | CCCCCCCCc1ccc(N/C=N/O)cc1 [Comp. 70] | 32.9 | –
101 to 102.5 °C | CCC(C)c1ccc(N/C=N/O)cc1 (stereo not drawn) [Comp. 4] | – | –
– | Cc1ccc2cc(N/C=N/O)ccc2n1 [Comp. 295] | – | Inhibition rate (1 μM) [1, 4]: 73.8
– | O/N=C/Nc1cc(C(F)(F)F)ccc1Cl [Comp. 80] | 37.2 | –
– | CC(=O)N(C)c1ccc(N/C=N/O)cc1 [Comp. 301] | – | Inhibition rate (1 μM) [1, 4]: 62.1
– | CCCCCCCCOc1ccc(N/C=N/O)cc1 [Comp. 322] | – | Inhibition rate (1 μM) [1, 4]: 117.5
– | Cc1ccc(N/C=N/O)c(CO)c1 [Comp. 171] | 54.1 | –
– | O/N=C/Nc1ccc(Cl)cc1Br [Comp. 117] | 71.6 | –
– | Cc1cc(Br)cc(C)c1N/C=N/O [Comp. 74] | 43.7 | –
– | CCCCCSc1ccc(N/C=N/O)cc1 [Comp. 450] | – | Inhibition rate (1 μM) ([1]; 1 μM of the subject compound): 105.9
– | O/N=C/Nc1ccc(OCc2ccc(-c3ccccc3)cc2)cc1 [Comp. 397] | – | Inhibition rate (1 μM) [1, 4]: 99.3
– | COc1ccc(C(F)(F)F)cc1N/C=N/O [Comp. 90] | 36.5 | –
– | Cc1cc(C(C#N)c2ccc(Cl)cc2)c(Cl)cc1N/C=N/O (stereo not drawn) [Comp. 279] | – | Inhibition rate (1 μM) [1, 4]: 42.8
– | COc1cc(OC)c(N/C=N/O)cc1Cl [Comp. 108] | 36.4 | –
– | Cc1ccc(N/C=N/O)c(F)c1 [Comp. 165] | 105.7 | –
159 to 160 °C | CCc1cc(Br)cc(CC)c1N/C=N/O [Comp. 53] | – | –
– | O/N=C/Nc1c(F)c(F)c(F)c(F)c1F [Comp. 215] | – | Inhibition rate (1 μM) [1, 4]: 36.1
– | CC(C)CCOc1ccc(N/C=N/O)cc1 [Comp. 328] | – | Inhibition rate (1 μM) [1, 4]: 121.4
– | CCOC(=O)CCCCCOc1ccc(N/C=N/O)cc1 [Comp. 378] | – | Inhibition rate (1 μM) [1, 4]: 102.4
183 to 183.5 °C | COC(=O)c1cc(N/C=N/O)cc(C(=O)OC)c1 [Comp. 129] | – | –
– | Cc1ccc(N/C=N/O)cc1Cl [Comp. 86] | 58.7 | –
– | O/N=C/Nc1ccc(OCc2cccc(Oc3ccccc3)c2)cc1 [Comp. 388] | – | Inhibition rate (1 μM) [1, 4]: 96.2
– | COc1cccc(N/C=N/O)c1OC [Comp. 99] | 40.8 | –
– | CCOc1cccc(N/C=N/O)c1 [Comp. 66] | 41.2 | –
– | CCc1cccc(C)c1N/C=N/O [Comp. 139] | 69.7 | –
